Data reported in patent publication US8207314B2, “Tumor antigens for prevention and/or treatment of cancer” (Sanofi Pasteur Limited, priority 2003, dated 2012).

How the values were obtained:
[1] = test system: Non-transfected CosA2 cells; assay: Zeocin selection of non-transfected cells; format: cell-based; conditions: for confluency of surviving cells: three weeks
Procedure: A stable transfection study was initiated to obtain stable clones of BFA4 expressing COS A2 cells. These cells are useful for in vitro stimulation assays pcDNA 3.1 zeo^R/BFA4 (2.5 μg and 20 μg), and pcDNA 3.1 zeo^R/BFA4/MycHis tag (2.5 μg) were used to study expression of BFA4). pGL3 Luciferase (2.5 μg) was used as a control vector to monitor transfection efficiency. The Gene porter reagent was used to facilitate transfection of DNA vectors. After 48 h post-transfection, whole cell extract were prepared by scraping cells in the cell lysis reagent (200 μl) and 1 cycle of freeze-thaw at −20° C./37° C. for first experiment. Transfected cells obtained from the second experiment were trypsinized, frozen stock established and cells were plated in increasing concentrations of Zeocin (0, 250, 500, 750 and 1000 μg/ml). Non-transfected CosA2cells survived at 60-80% confluency for three weeks at 100 μg/ml (Zeocin) and 10% confluency at 250 μg/ml (Zeocin).

HLA-A*0201 human T cells = assay: IFN-γ ELISPOT of human T cells activated with BFA5/NYBR-1 peptide pools and single peptides; format: cell-based; conditions: for BFA5 peptides eliciting high IFN-γ release (>200 spots/100,000 cells): listing = result; for IFN-γ secretion in T cells from both donors: donors AP10 and AP31
Procedure: A library of 100 peptides from the BFA5/NYBR-1 coding sequence that are predicted to be medium to high binders to HLA-A*0201 were designed using Rammensee and Parker algorithms. The library was sub-divided into 10 pools of ten peptides (see Table XI), and each pool was used to activate 10 different T cell cultures after pulsing peptides on to mature autologous dendritic cells.
ELISPOT analysis was performed on human T-cell cultures activated through four rounds of stimulation with each pool of BFA5 peptides. In FIG. 13A, the numbers under the X-axis indicate the number of each peptide pool (1-10). Reactivity against a CMV pp65 peptide, and a Flu matrix peptide were used as positive controls for T-cell activation in the experiments. Each experiment was performed with PBMC and dendritic cells from a single HLA-A*0201^+ donor designated as “AP10”. […] Similar results were obtained for both BFA4 and BFA5/NYBR-1 with a different HLA-A*0201. […] Cultures having a reading of 600 spots have more than this number of spots.
A large number of the BFA5 peptide pools of are reactive as shown by the high levels of IFN-γ production (FIG. 13A). Each reactive peptide pool was then separated into individual peptides and analyzed for immunogenicity using ELISPOT analysis to isolate single reactive BFA5 peptides. […] Similar results were obtained in two independent PBMC culture experiments.

BFA4 = assay: Rabbit antibody titers after immunization with BFA4 22-mer peptides; format: in vivo
Source text: For monitoring purposes, rabbit anti-BFA4 polyclonal antibodies were generated. Six peptides (22-mers) were designed and synthesized to elicit antibody response to BFA4, as shown below:
Rabbits were immunized with the peptides, serum was isolated, and the following antibody titers were observed: […]

[2] = test system: peptide-loaded human T2 lymphoma cell targets; assay: CTL killing of BFA4 peptide-pulsed target cells; format: cell-based; conditions: single BFA4 peptides, listing = result
peptide-loaded T2 cells = assay: 51Cr-release CTL assay with BFA5 peptide-activated human T cells; format: cell-based; conditions: for BFA5 peptides inducing CTL lysis of pulsed cells: Donor AP10, listing = result; for CTL activity in T cells from both donors: donors AP10 and AP31
Procedure: In addition to ELISPOT analysis, human T cells activated by BFA5 peptides were assayed to determine their ability to function as CTL. The cells were activated using peptide-pulsed dendritic cells followed by CD40 ligand-activated B cells (5 rounds of stimulation). The experiment shown was performed with isolated PBMC from HLA-A*0201^+ donor AP31. Isolated T cells were tested in ^51Cr-release assays using peptide-loaded T2 cells. The % specific lysis at a 10:1, 5:1, and 1:1 T-cell to target ratio is shown for T2 cells pulsed with either pools of BFA5/NYBR-1 peptides or with individual peptides. […] CTL activity (percent specific lysis) induced by the control HIV peptide was generally <10%. Similar results were obtained with another PBMC donor expressing HLA-A*0201 (AP10). […]

[3] = test system: Human PBMC from an HLA-A2.1 positive donor; assay: IFN-γ ELISPOT of human T cells activated with BFY3 peptide pools and deconvolution to single peptides; format: cell-based; conditions: BFY3 nonamer peptides; listing = result
Source text: Human PBMC from an HLA-A2.1 positive donor designated AP31 were activated with autologous dendritic cells pulsed with different pools of 9-mer peptides from the BFY3 antigen (see Table I for list). The activated T cells were re-stimulated after 12 days with activated autologous CD40-ligand-activated B cells pulsed with the same respective peptide pools for another 8 to 10 days. This secondary activation was repeated 2 more time for a total of 4 stimulations. The activated T cells were isolated after the 4th stimulation and subjected to ELISPOT analysis for human IFN-γ production against their respective BFY3 peptide pools as shown. The blue bars show reactivity against the BFY3 peptide pools and the red bars are for an HLA-A2.1-binding HIV peptide as a negative control. Standard deviations are indicated. The experiment was repeated 2 times on activated T cells from different rounds of peptide stimulation with the similar results (FIG. 17A).
The BFY3 peptide pools were deconvoluted and studied in IFN-γ ELISPOT assays. Stimulation was performed as described earlier for the other antigens described. After 4 rounds of stimulation, the T cells from each culture were harvested and subjected to ELISPOT analysis for IFN-γ production with each individual peptide in each pool. FIG. 17B illustrates individual peptide reactivity for each specific pool.

[4] = test system: targets pulsed with corresponding peptide pools; assay: CTL killing of targets pulsed with BFY3 peptide pools or peptides; format: cell-based, human; conditions: for Peptides eliciting CTL activity (peptide pulsed targets): BFY3 nonamer peptides, listing = result; for recognition of single peptides by CTL: BFY3 peptides, peptide-pulsed targets
Procedure: In addition to ELISPOT analysis, human T cells activated by BFY3 peptides were assayed for reactivity. Ten pools of peptides consisting often peptides per pool used to generate CTL. These 10 groups of effectors used to kill targets pulsed with corresponding peptide pools. […]

[5] = first-listed rabbit of the pair
[6] = second-listed rabbit of the pair

Cc1c(N)nc([C@H](CC(N)=O)NC[C@H](N)C(N)=O)nc1C(=O)N[C@H](C(=O)N[C@H](C)[C@@H](O)[C@H](C)C(=O)N[C@H](C(=O)NCCC1=N[C@@H](c2nc(C(=O)NCCCCN=C(N)N)cs2)CS1)[C@@H](C)O)[C@@H](O[C@@H]1O[C@@H](CO)[C@@H](O)[C@H](O)[C@@H]1O[C@H]1O[C@H](CO)[C@@H](O)[C@H](OC(N)=O)[C@@H]1O)c1cnc[nH]1 [Zeocin]
confluency of surviving cells ([1]; 100 μg/ml): 60-80% | confluency of surviving cells ([1]; 250 μg/ml): 10% | live cells ([1]; 500-1000 μg/ml, after three weeks): live cells were not observed

ALRICDIEL [CLP 3043]
BFA5 peptides eliciting high IFN-γ release (>200 spots/100,000 cells) (HLA-A*0201 human T cells; Donor AP10): ALRIQDIEL

ANGASKEKTKAPPNVKNEGPLNV [CLP2594]
Titer (Bleed 2) (BFA4; [5]): 409600, 409600 | Titer (Final Bleed) (BFA4; [5]): 320000, 320000 | Titer (Bleed 2) (BFA4; [6]): 409600, 409600 | Titer (Final Bleed) (BFA4; [6]): 320000, 320000

ASLGLLTPV [CLP 2482]
Strong CTL Killing (listed as highly immunoreactive peptide) [2]: ASLGLLTPV

ATDGMKVSI [CLP 3054]
BFA5 peptides eliciting high IFN-γ release (>200 spots/100,000 cells) (HLA-A*0201 human T cells; Donor AP10): ATCGMKVSI | BFA5 peptides inducing CTL lysis of pulsed cells (peptide-loaded T2 cells): ATCGMKVSI

ELCSVRLTL [CLP 3050]
IFN-γ secretion in T cells from both donors (HLA-A*0201 human T cells): induce | CTL activity in T cells from both donors (peptide-loaded T2 cells): induce

FTTPDVDVL [CLP 2468]
Strong CTL Killing (listed as highly immunoreactive peptide) [2]: FTTPDVDVL

GLHRNNAQV [CLP 2520]
Strong CTL Killing (listed as highly immunoreactive peptide) [2]: GLHRNNAQV

HLARDFGYV [CLP 3387]
Peptides eliciting strong IFN-γ ELISPOT activity [3]: HLARDFGYV | Peptides eliciting CTL activity (peptide pulsed targets) [4]: HLARDFGYV | recognition of single peptides by CTL [4]: strongly recognized

HLARPIYGL [CLP 2486]
Strong CTL Killing (listed as highly immunoreactive peptide) [2]: HLARPIYGL

ILIDSGADI [CLP 3005]
IFN-γ secretion in T cells from both donors (HLA-A*0201 human T cells): induce | CTL activity in T cells from both donors (peptide-loaded T2 cells): induce

ILSVVAKLL [CLP 3011]
IFN-γ secretion in T cells from both donors (HLA-A*0201 human T cells): induce | CTL activity in T cells from both donors (peptide-loaded T2 cells): induce

KAANVTLLT [CLP 3378]
Peptides eliciting strong IFN-γ ELISPOT activity [3]: KAANVTLLT | Peptides eliciting CTL activity (peptide pulsed targets) [4]: KAANVTLLT | recognition of single peptides by CTL [4]: strongly recognized

KLDKIGLNL [CLP 3372]
Peptides eliciting strong IFN-γ ELISPOT activity [3]: KLDKIGLNL | Peptides eliciting CTL activity (peptide pulsed targets) [4]: KLDKIGLNL | recognition of single peptides by CTL [4]: strongly recognized

KSQIEPAFH [CLP 3037]
BFA5 peptides eliciting high IFN-γ release (>200 spots/100,000 cells) (HLA-A*0201 human T cells; Donor AP31): KSQEPAFHI

KYKVTVAEV [CLP 3362]
Peptides eliciting strong IFN-γ ELISPOT activity [3]: KYKVTVAEV | Peptides eliciting CTL activity (peptide pulsed targets) [4]: KYKVTVAEV | recognition of single peptides by CTL [4]: Moderately recognized

LLGGVLRRA [CLP 3369]
Peptides eliciting strong IFN-γ ELISPOT activity [3]: LLGGVLRRA | Peptides eliciting CTL activity (peptide pulsed targets) [4]: LLGGVLRRA | recognition of single peptides by CTL [4]: Moderately recognized

LMDMQTFKA [CLP 2983]
IFN-γ secretion in T cells from both donors (HLA-A*0201 human T cells): induce | CTL activity in T cells from both donors (peptide-loaded T2 cells): induce

LNASLLGGV [CLP 3366]
Peptides eliciting strong IFN-γ ELISPOT activity [3]: LNASLLGGV

MLAFSFPAA [CLP 2427]
Strong CTL Killing (listed as highly immunoreactive peptide) [2]: MLAFSFPAA

MVRKKNPPLRNVASEGEGQILE [CLP2589]
Titer (Bleed 2) (BFA4; [5]): 800000 | Titer (Final Bleed) (BFA4; [5]): 2560000, 2560000 | Titer (Bleed 2) (BFA4; [6]): 1600000 | Titer (Final Bleed) (BFA4; [6]): 2560000, 2560000

NACGLYQKL [CLP 2495]
Strong CTL Killing (listed as highly immunoreactive peptide) [2]: NACGLYQKL

NGEQIIRRRTRKRLNPEALQAE [CLP2593]
Titer (Bleed 2) (BFA4; [5]): 3200000 | Titer (Final Bleed) (BFA4; [5]): 2560000 | Titer (Bleed 2) (BFA4; [6]): 51200 | Titer (Final Bleed) (BFA4; [6]): 160000

NHLQGSDGQQSVKESKEHSCTK [CLP2592]
Titer (Bleed 2) (BFA4; [5]): 25600 | Titer (Final Bleed) (BFA4; [5]): 80000 | Titer (Bleed 2) (BFA4; [6]): 12800 | Titer (Final Bleed) (BFA4; [6]): 40000

NLFGGVVNP [CLP 3351]
Peptides eliciting strong IFN-γ ELISPOT activity [3]: NLFGGVVNP

NMLAFSFPA [CLP 2426]
Strong CTL Killing (listed as highly immunoreactive peptide) [2]: NMLAFSFPA

NVTLLTSLV [CLP 3380]
Peptides eliciting strong IFN-γ ELISPOT activity [3]: NVTLLTSLV

RLNPEALQA [CLP 2499]
Strong CTL Killing (listed as highly immunoreactive peptide) [2]: RLNPEALQA

RNMLAFSFP [CLP 2425]
Strong CTL Killing (listed as highly immunoreactive peptide) [2]: RNMLAFSFP

SCLTHFNLI [CLP 3403]
Peptides eliciting strong IFN-γ ELISPOT activity [3]: SCLTHFNLI

SHGFGSPAV [CLP 3407]
Peptides eliciting strong IFN-γ ELISPOT activity [3]: SHGFGSPAV

SLPHAIEEV [CLP 3343]
Peptides eliciting strong IFN-γ ELISPOT activity [3]: SLPHAIEEV

SPKATEETGQAQSGQANCQGLS [CLP2590]
Titer (Bleed 2) (BFA4; [5]): 12800 | Titer (Final Bleed) (BFA4; [5]): 40000, 40000 | Titer (Bleed 2) (BFA4; [6]): 6400 | Titer (Final Bleed) (BFA4; [6]): 40000, 40000

SQYSGQLKV [CLP 3015]
IFN-γ secretion in T cells from both donors (HLA-A*0201 human T cells): induce | CTL activity in T cells from both donors (peptide-loaded T2 cells): induce

VAKPSEKNSNKSIPALQSSDSG [CLP2591]
Titer (Bleed 2) (BFA4; [5]): 400000, 400000 | Titer (Final Bleed) (BFA4; [5]): 320000, 320000 | Titer (Bleed 2) (BFA4; [6]): 400000, 400000 | Titer (Final Bleed) (BFA4; [6]): 320000, 320000

YLLHENQML [CLP 2997]
BFA5 peptides eliciting high IFN-γ release (>200 spots/100,000 cells) (HLA-A*0201 human T cells; Donor AP10): YLLHENCML | BFA5 peptides eliciting high IFN-γ release (>200 spots/100,000 cells) (HLA-A*0201 human T cells; Donor AP31): YLLHENCML | BFA5 peptides inducing CTL lysis of pulsed cells (peptide-loaded T2 cells): YLLHENCML

YLTEALKAM [CLP 3415]
Peptides eliciting strong IFN-γ ELISPOT activity [3]: YLTEALKAM

YVPYPTFNL [CLP 2509]
Strong CTL Killing (listed as highly immunoreactive peptide) [2]: YVPYPTFNL
